According to patent publication US20060241297A1, “Pyridinylamino-pyrimidine derivatives as protein kinase inhibitors” (Cyclacel Limited, priority 2003, published 2006):
Like-named read-outs stand apart in the source and are kept apart here.

Tests used:
[1] = system: transformed human cell lines (A549, HT29, Saos-2); assay: 72-h MTT cytotoxicity assay, average over cell lines; format: cell-based
Experimental: (§1) The compounds from the examples above were subjected to a standard cellular proliferation assay using human tumour cell lines obtained from the ATCC (American Type Culture Collection, 10801 University Boulevard, Manessas, Va. 20110-2209, USA). Standard 72-h MTT (thiazolyl blue; 3-[4,5-dimethylthiazol-2-yl]-2,5-diphenyltetrazolium bromide) assays were performed. In short: cells were seeded into 96-well plates according to doubling time and incubated overnight at 37° C. Test compounds were made up in DMSO and a 1/3 dilution series prepared in 100 μL cell media, added to cells (in triplicates) and incubated for 72 ho at 37° C. MTT was made up as a stock of 5 mg/mL in cell media and filter-sterilised. Media was removed from cells followed by a wash with 200 μL PBS. MTT solution was then added at 20 μL per well and incubated in the dark at 37° C. for 4 h. MTT solution was removed and cells again washed with 200 μL PBS. MTT dye was solubilised with 200 μL per well of DMSO with agitation. Absorbance was read at 540 nm and data analysed using curve-fitting software (GraphPad Prism version 3.00 for Windows, GraphPad Software, San Diego Calif. USA) to determine IC50 values (concentration of test compound which inhibits cell growth by 50%). Various modifications and variations of the described aspects of the invention will be apparent to those skilled in the art without departing from the scope and spirit of the invention. Although the invention has been described in connection with specific preferred embodiments, it should be understood that the invention as claimed should not be unduly limited to such specific embodiments. Indeed, various modifications of the described modes of carrying out the invention which are obvious to those skilled in the relevant fields are intended to be within the scope of the following claims.

CDK7/cyclin H = CDK7/cyclin H (Homo sapiens, UniProt P50613); assay: Kinase assay, incorporation of radioactive phosphate from ATP; format: biochemical; settings: 100 μM ATP, 30° C.; read-out: Kinase inhibition Ki CDK7/cyclin H
Experimental: (§2) The compounds from the examples above were investigated for their ability to inhibit the enzymatic activity of various protein kinases. This was achieved by measurement of incorporation of radioactive phosphate from ATP into appropriate polypeptide substrates. Recombinant protein kinases and kinase complexes were produced or obtained commercially. Assays were performed using 96-well plates and appropriate assay buffers (typically 25 mM β-glycerophosphate, 20 mM MOPS, 5 mM EGTA, 1 mM DTT, 1 mM […], pH 7.4), into which were added 2-4 μg of active enzyme with appropriate substrates. The reactions were initiated by addition of Mg/ATP mix (15 mM MgCl2+100 μM ATP with 30-50 kBq per well of [γ-^32P]-ATP) and mixtures incubated as required at 30° C. Reactions were stopped on ice, followed by filtration through p81 filterplates or GF/C filterplates (Whatman Polyfiltronics, Kent, UK). After washing 3 times with 75 mM aq orthophosphoric acid, plates were dried, scintillant added and incorporated radioactivity measured in a scintillation counter (TopCount, Packard Instruments, Pangboume, Berks, UK). Compounds for kinase assay were made up as 10 mM stocks in DMSO and diluted into 10% DMSO in assay buffer. Data was analysed using curve-fitting software (GraphPad Prism version 3.00 for Windows, GraphPad Software, San Diego Calif. USA) to determine IC50 values (concentration of test compound which inhibits kinase activity by 50%.).

CDK1/cyclin B = CDK1/cyclin B (Homo sapiens, UniProt P06493); assay: as above; format: biochemical; settings: 100 μM ATP, 30° C.; read-out: Kinase inhibition Ki CDK1/cyclin B
Experimental: as §2

CDK4/cyclin D1 = CDK4/cyclin D1 (Homo sapiens, UniProt P11802); assay: as above; format: biochemical; settings: 100 μM ATP, 30° C.; read-out: Kinase inhibition Ki CDK4/cyclin D1
Experimental: as §2

CDK2/cyclin A = CDK2/cyclin A (Homo sapiens, UniProt P24941); assay: as above; format: biochemical; settings: 100 μM ATP, 30° C.; read-out: Kinase inhibition Ki CDK2/cyclin A
Experimental: as §2

CDK9/cyclin T1 = CDK9/cyclin T1 (Homo sapiens, UniProt P50750); assay: as above; format: biochemical; settings: 100 μM ATP, 30° C.; read-out: Kinase inhibition Ki CDK9/cyclin T1
Experimental: as §2

Aurora-A = molecular target: T1, Aurora-A (Homo sapiens, UniProt O14965); assay: as above; format: biochemical; settings: 100 μM ATP, 30° C.; read-out: Kinase inhibition Ki Aurora-A
T1 sequence (O14965 1-403): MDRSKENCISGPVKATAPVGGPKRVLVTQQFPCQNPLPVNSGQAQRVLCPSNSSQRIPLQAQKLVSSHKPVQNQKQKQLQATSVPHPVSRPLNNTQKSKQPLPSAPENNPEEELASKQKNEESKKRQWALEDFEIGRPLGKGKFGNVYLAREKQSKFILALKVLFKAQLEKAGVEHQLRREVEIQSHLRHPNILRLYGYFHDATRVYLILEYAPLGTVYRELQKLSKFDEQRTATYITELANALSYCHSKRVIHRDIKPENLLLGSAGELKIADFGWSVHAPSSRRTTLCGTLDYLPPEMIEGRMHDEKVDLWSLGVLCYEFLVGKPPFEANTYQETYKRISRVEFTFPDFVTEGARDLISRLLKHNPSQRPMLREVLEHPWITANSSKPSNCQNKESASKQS
Experimental: as §2

A549 = assay: 72-h MTT cytotoxicity assay; format: cell-based; settings: Homo sapiens
Experimental: as §1

Saos-2 = assay: 72-h MTT cytotoxicity assay; format: cell-based; settings: Homo sapiens
Experimental: as §1

CDK2/cyclin E = CDK2/cyclin E (Homo sapiens, UniProt P24941); assay: Kinase assay, incorporation of radioactive phosphate from ATP; format: biochemical; settings: 100 μM ATP, 30° C.; read-out: Kinase inhibition Ki CDK2/cyclin E
Experimental: as §2

GSK3β = GSK3β (Homo sapiens, UniProt P49841); assay: as above; format: biochemical; settings: 100 μM ATP, 30° C.; read-out: Kinase inhibition Ki GSK3β
Experimental: as §2

HT29 = assay: 72-h MTT cytotoxicity assay; format: cell-based; settings: Homo sapiens, HT-29
Experimental: as §1

[2] = average of A549, HT29, Saos-2, read-out: 72-h MTT IC50 Average
[3] = in vitro, read-out: IC50 value (average) against one or more transformed human cell lines, 72-h MTT cytotoxicity assay

CDK1/cyclin B, sequence (P06493 whole entry): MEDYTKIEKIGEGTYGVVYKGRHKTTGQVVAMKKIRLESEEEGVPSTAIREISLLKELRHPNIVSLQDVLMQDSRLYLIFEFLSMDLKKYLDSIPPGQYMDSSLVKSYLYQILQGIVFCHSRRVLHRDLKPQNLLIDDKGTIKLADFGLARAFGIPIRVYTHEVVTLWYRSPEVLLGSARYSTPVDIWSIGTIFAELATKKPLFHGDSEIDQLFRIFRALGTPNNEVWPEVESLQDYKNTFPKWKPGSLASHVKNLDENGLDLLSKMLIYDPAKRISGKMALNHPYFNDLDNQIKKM
CDK1/cyclin B, sequence (P14635 whole entry partner): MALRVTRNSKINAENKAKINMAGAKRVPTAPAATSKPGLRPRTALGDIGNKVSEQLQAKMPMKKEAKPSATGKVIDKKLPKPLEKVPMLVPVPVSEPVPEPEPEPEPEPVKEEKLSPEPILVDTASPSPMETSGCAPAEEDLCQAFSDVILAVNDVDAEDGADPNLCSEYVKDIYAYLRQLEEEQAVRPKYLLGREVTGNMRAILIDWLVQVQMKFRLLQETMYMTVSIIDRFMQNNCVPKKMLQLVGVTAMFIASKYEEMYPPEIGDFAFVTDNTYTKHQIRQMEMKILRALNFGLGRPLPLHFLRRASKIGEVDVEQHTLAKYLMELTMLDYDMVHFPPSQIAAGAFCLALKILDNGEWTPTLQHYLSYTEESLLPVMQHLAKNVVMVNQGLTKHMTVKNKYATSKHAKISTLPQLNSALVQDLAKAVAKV
CDK9/cyclin T1, sequence (P50750 whole entry): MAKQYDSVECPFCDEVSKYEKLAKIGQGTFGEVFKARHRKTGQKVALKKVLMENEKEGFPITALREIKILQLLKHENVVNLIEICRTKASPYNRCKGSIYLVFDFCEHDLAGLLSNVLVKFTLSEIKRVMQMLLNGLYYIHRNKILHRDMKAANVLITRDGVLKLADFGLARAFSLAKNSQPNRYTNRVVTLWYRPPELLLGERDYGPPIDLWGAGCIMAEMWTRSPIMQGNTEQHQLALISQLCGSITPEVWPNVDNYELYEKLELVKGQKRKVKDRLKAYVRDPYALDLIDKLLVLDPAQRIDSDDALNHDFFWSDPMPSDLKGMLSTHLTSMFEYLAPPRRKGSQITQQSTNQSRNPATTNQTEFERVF
CDK9/cyclin T1, sequence (O60563 whole entry partner): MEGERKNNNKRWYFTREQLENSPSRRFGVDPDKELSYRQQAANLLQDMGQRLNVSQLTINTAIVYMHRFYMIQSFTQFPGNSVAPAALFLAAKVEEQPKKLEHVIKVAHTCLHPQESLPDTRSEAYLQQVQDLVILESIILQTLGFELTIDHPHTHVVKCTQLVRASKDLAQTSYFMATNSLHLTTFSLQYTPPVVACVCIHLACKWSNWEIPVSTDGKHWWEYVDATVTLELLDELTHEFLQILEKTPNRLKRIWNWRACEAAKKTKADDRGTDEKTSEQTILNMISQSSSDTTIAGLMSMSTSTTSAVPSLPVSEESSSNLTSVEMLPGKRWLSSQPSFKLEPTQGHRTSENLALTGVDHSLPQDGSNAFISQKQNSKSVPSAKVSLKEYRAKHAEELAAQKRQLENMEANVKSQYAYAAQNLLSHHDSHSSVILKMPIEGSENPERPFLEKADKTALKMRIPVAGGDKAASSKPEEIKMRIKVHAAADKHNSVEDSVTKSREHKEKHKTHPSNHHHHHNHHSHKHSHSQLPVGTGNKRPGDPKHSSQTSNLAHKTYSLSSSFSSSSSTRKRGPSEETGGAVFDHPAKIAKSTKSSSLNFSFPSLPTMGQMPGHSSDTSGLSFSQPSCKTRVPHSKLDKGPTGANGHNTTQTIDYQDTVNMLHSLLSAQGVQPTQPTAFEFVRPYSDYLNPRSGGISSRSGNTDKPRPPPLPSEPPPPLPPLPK
CDK7/cyclin H, sequence (P50613 whole entry): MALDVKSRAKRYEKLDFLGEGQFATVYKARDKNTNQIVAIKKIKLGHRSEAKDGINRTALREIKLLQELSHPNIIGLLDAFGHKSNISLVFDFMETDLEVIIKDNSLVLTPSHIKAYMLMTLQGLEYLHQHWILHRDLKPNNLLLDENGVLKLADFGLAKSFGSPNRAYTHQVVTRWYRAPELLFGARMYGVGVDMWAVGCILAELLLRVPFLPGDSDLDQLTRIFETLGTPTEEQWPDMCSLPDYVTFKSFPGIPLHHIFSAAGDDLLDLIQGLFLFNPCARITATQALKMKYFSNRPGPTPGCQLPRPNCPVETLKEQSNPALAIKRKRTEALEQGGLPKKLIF
CDK7/cyclin H, sequence (P51946 whole entry partner): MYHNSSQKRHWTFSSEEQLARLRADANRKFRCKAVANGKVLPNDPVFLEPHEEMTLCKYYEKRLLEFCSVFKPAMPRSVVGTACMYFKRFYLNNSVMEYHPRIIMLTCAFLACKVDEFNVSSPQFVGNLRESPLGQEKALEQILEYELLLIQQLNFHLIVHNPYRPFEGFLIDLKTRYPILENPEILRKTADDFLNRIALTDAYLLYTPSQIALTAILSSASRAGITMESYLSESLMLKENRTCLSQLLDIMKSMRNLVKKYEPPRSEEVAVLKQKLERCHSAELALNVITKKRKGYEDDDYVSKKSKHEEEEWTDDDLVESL
GSK3β, sequence (P49841 whole entry): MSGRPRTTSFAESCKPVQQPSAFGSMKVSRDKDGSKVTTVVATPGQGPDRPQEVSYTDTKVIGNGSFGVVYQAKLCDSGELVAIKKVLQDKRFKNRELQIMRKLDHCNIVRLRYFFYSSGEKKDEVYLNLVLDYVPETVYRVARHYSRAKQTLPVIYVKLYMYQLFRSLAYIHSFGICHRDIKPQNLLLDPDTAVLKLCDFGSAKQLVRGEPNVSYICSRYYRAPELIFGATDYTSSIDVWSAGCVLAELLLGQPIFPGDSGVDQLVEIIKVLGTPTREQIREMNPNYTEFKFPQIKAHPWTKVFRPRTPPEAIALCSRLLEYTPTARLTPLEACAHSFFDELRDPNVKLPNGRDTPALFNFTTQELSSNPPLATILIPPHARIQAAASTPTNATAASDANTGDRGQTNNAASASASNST
CDK4/cyclin D1, sequence (P11802 whole entry): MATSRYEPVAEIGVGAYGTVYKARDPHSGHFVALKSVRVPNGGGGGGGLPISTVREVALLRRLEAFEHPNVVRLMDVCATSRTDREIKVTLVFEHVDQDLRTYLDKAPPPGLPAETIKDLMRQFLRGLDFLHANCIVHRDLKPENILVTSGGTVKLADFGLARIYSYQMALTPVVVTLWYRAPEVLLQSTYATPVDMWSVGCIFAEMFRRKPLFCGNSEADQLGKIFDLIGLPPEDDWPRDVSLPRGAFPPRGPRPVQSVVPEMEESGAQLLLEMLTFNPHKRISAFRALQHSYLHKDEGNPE
CDK4/cyclin D1, sequence (P24385 whole entry partner): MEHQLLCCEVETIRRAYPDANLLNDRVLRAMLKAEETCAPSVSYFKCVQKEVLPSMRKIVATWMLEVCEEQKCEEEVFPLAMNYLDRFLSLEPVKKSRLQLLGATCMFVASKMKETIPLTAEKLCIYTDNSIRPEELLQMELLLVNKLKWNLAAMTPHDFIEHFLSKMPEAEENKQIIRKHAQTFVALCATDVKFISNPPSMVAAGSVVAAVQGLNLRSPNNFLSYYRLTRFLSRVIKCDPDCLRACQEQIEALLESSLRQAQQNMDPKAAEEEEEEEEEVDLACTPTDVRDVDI

SMILES | Ki (CDK7/cyclin H) [µM] | Ki (CDK1/cyclin B) [µM] | Ki (CDK4/cyclin D1) [µM] | Ki (CDK2/cyclin A) [µM] | Ki (CDK9/cyclin T1) [µM] | Ki (Aurora-A) [µM] | Ki (CDK2/cyclin E) [µM] | Ki (GSK3β) [µM] | IC50 [1, 2] [µM] | IC50 (A549) [µM] | IC50 (Saos-2) [µM] | IC50 (HT29) [µM] | IC50 [1, 3] [µM]
Cc1nc(C)c(-c2ccnc(Nc3ccc(N4CCCC4)nc3)n2)s1 [Compound 14, [4-(2,4-Dimethyl-thiazol-5-yl)-pyrimidin-2-yl]-(6-pyrrolidin-1-yl-pyridin-3-yl)-amine] | 0.73 | 2.1 | 2.6 | 1.4 | 0.1 | 0.12 | – | – | 0.3 | 0.3 | 0.32 | – | –
CNc1nc(C)c(-c2ccnc(Nc3ccc(Cl)nc3)n2)s1 [Compound 9, (6-Chloro-pyridin-3-yl)-[4-(4-methyl-2-methylamino-thiazol-5-yl)-pyrimidin-2-yl]-amine] | – | – | 0.98 | 0.48 | 0.11 | 1 | 0.08 | – | 4.6 ± 0.8 | 3.7 | 5.2 | 4.7 | < 10
COc1ccc(Nc2nccc(-c3sc(N(C)C)nc3C)n2)cn1 [Compound 10, [4-(2-Dimethylamino-4-methyl-thiazol-5-yl)-pyrimidin-2-yl]-(6-methoxy-pyridin-3-yl)-amine] | 2.3 | 1.2 | 0.07 | 0.33 | 0.14 | – | 0.12 | 0.11 | 2 ± 0.4 | 2.4 | 1.8 | 1.7 | –
CCNc1nc(C)c(-c2ccnc(Nc3ccc(OC)nc3)n2)s1 [Compound 12, [4-(2-Ethylamino-4-methyl-thiazol-5-yl)-pyrimidin-2-yl]-(6-methoxy-pyridin-3-yl)-amine] | 0.13 | 0.1 | 0.08 | 0.03 | 0.09 | – | 0.05 | 0.06 | 1.2 ± 0.4 | 1.2 | 1.5 | 0.8 | –
CNc1nc(C)c(-c2ccnc(Nc3ccc(N4CCN(C)CC4)nc3)n2)s1 [Compound 15, [4-(4-Methyl-2-methylamino-thiazol-5-yl)-pyrimidin-2-yl]-[6-(4-methyl-piperazin-1-yl)-pyridin-3-yl]-amine] | 0.28 | – | 0.08 | 1.5 | 0.08 | – | – | 2.9 | – | – | – | – | –
COc1ccc(Nc2nccc(-c3sc(C)nc3C)n2)cn1 [Compound 6, [4-(2,4-Dimethyl-thiazol-5-yl)-pyrimidin-2-yl]-(6-methoxy-pyridin-3-yl)-amine] | 1.4 | 2.8 | 0.46 | 1.4 | 0.28 | – | 0.13 | – | 4.6 ± 3.1 | 5.1 | 7.5 | 1.4 | < 10
COCCNc1nc(C)c(-c2ccnc(Nc3ccc(OC)nc3)n2)s1 [Compound 13, {4-[2-(2-Methoxy-ethylamino)-4-methyl-thiazol-5-yl]-pyrimidin-2-yl}-(6-methoxy-pyridin-3-yl)-amine] | 0.65 | 2.3 | 0.25 | 0.95 | 0.12 | – | 0.25 | 0.1 | – | – | – | – | –

The next lines start with results.

Ki (CDK7/cyclin H) [µM] | Ki (CDK1/cyclin B) [µM] | Ki (CDK4/cyclin D1) [µM] | Ki (CDK2/cyclin A) [µM] | Ki (CDK9/cyclin T1) [µM] | Ki (Aurora-A) [µM] | Ki (CDK2/cyclin E) [µM] | Ki (GSK3β) [µM] | SMILES | IC50 [1, 2] [µM] | IC50 (A549) [µM] | IC50 (Saos-2) [µM] | IC50 (HT29) [µM] | IC50 [1, 3] [µM]
0.43 | 0.84 | 0.04 | 0.27 | 0.006 | – | 0.03 | 0.05 | CNc1nc(C)c(-c2ccnc(Nc3ccc(OC)nc3)n2)s1 [Compound 8, (6-Methoxy-pyridin-3-yl)-[4-(4-methyl-2-methylamino-thiazol-5-yl)-pyrimidin-2-yl]-amine] | 1.7 ± 0.3 | 1.4 | 1.7 | 2 | –
1.5 | 2 | 0.07 | 0.86 | 0.005 | – | 0.05 | 0.16 | Cc1nc(N)sc1-c1ccnc(Nc2ccc(Cl)nc2)n1 [Compound 7, [4-(2-Amino-4-methyl-thiazol-5-yl)-pyrimidin-2-yl]-(6-chloro-pyridin-3-yl)-amine] | 3.2 ± 0.1 | 3.3 | 3.1 | 3.4 | < 10
0.23 | 3.4 | 1.2 | 0.37 | 0.027 | – | 0.11 | 0.013 | CCn1c(C)c(-c2ccnc(Nc3ccc(OC)nc3)n2)sc1=O [Compound 11, 3-Ethyl-5-[2-(6-methoxy-pyridin-3-ylamino)-pyrimidin-4-yl]-4-methyl-3H-thiazol-2-one] | – | – | – | – | –
– | – | 0.34 | – | 0.08 | – | 0.11 | – | Cc1nc(C)c(-c2ccnc(Nc3cccnc3)n2)s1 [Compound 1, [4-(2,4-Dimethyl-thiazol-5-yl)-pyrimidin-2-yl]-pyridin-3-yl-amine] | 3.6 ± 0.3 | 3.2 | 3.7 | 3.7 | < 10
0.71 | 5.5 | 0.06 | 0.95 | 0.005 | – | 0.07 | 0.35 | COc1ccc(Nc2nccc(-c3sc(N)nc3C)n2)cn1 [Compound 5, [4-(2-Amino-4-methyl-thiazol-5-yl)-pyrimidin-2-yl]-(6-methoxy-pyridin-3-yl)-amine] | 3.5 ± 0.4 | 3.5 | 3.1 | 4 | < 10
– | 1.5 | – | – | 0.021 | – | 0.14 | 0.011 | Cc1c(-c2ccnc(Nc3ccc(Cl)nc3)n2)sc(=O)n1C [Compound 4, 5-[2-(6-chloro-pyridin-3-ylamino)-pyrimidin-4-yl]-3,4-dimethyl-3H-thiazol-2-one] | 1.1 ± 0.6 | 1.1 | 1.7 | 0.6 | –
